The nature of data set [1]: Increasing effect on a coronary blood flow (anesthetized dog). It counts as in vivo. The following applies: administered once into perfusion channel. As to the method:
[Increasing effect on a coronary blood flow]
Adult dog weighed 9 to 13 kg which was anesthetized intravenously with 30 mg/kg of pentobarbiturate was used for this experiment. The animal was cut open at a chest under a condition of an artificial respiration. After an intravenous injection of 1000 U/kg of heparin, a glass cannula was inserted into coronary ramus circumflexus by way of a left subclavina artery and a perfusion was carried out with blood introduced from a right carotid artery. A blood flow was measured by means of a electromagnetic flowmeter set up at a perfusion channel.
Each of test compounds was dissolved in a physiologic salt solution and the solution was administered once into a perfusion channel. An increase of a coronary blood flow was indicated as a percentage of an increasing rate.
For the purpose of a comparison, the same experiment as mentioned above was carried out on Papavelin which was commonly used as coronary vasodilator.

Data set [2] is described as follows: Antihypertensive effect and effect on heart rate in spontaneously hypertensive rat (SHR). The note with it: po, single dose, maximum over 1, 3, 5, 7 hours (Table 2). The data set is classed as in vivo. The method, then: [Antihypertensive effect and effect on a heart rate on rat suffering from a spontaneously hypertensive rat (SHR)]
A blood pressure was measured under no anesthetic condition by means of an apparatus for recording a blood pressure of a tail artery and a heart rate (Riken Kaihatsu Co., Ltd.) (PS-802) and at the same time a heart rate was also measured.
Each of test compounds was dissolved or suspended in an aqueous solution containing 5% by weight of acasia and the obtained solution or suspension was administered once orally to SHR which had been kept under a fast condition for one night. A blood pressure and a heart rate were measured before administration and after one hour, three hours, five hours and seven hours of it and the maximum value of changes were calculated by comparing the value measured before administration with the value measured after administration.
For the purpose of a comparison, the same experiment as mentioned above was carried out on both Labetalol and Diltiazem as mentioned above.
With respect to a dosage, 100 mg/kg and 10 mg/kg as to compounds obtained by Examples 2, 5, 6, 9 and 18 to 23 were respectively administered, 100 mg/kg as to compounds obtained by Examples 1, 3, 4, 7 and 10 to 17 was respectively administered.

Data set [3] in a line: Accute toxicity test (LD50 value). The following applies: mouse, in vivo; mice; single oral administration; deaths by seventh day; Litchfield-Wilcoxon. As to the method: [Accute toxicity test (LD50 value)]
The experiment was carried out using six weeks old ddy male mice.
Each of test compounds was suspended in an aqueous solution containing 5% by weight of acasia and the suspension was administered compulsorily once orally with a gastric probe. Within six hours after the start of the administration, the behavior of tested mice were observed consecutively. Thereafter, the observation was made at an interval of twenty four hours during 7 days and an accumulative number of deaths seventh day since the start of the administration was measured.
LD50 value was calculated according to the Litchfield-Wilcoxon method.

Data set [4] deals with T1, α-adrenergic blockade (vas deferens specimen, contraction by noradrenalin) (Rattus norvegicus, UniProt P43140).
T1 construct: from tissue; host or cells: vas deferens of six-week-old male Wistar rat
T1 sequence (P43140 1-466): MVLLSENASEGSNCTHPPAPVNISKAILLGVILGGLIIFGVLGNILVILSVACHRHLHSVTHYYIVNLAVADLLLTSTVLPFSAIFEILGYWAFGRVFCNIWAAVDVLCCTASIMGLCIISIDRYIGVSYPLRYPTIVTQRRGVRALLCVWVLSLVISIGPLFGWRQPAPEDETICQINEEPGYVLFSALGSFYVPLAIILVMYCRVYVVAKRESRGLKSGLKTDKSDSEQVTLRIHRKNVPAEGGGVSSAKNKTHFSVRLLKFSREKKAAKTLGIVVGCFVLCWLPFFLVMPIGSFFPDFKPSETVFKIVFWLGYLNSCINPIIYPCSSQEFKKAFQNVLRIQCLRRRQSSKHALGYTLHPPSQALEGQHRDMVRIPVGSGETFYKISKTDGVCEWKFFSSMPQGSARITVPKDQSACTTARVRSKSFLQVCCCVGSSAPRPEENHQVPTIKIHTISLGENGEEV
In words: α-Adrenergic blockade effect (contraction response by noradrenalin of vas deferens specimen, Magnus method). The arrangement: species or system Wister male rat. The following applies: rat vas deferens; antagonism of noradrenalin contraction; pA2 = negative logarithm of antagonist dose shifting agonist curve two times; read-out: α-Adrenergic blockade effect, pA2 value (converted).

The target of data set [5] is T2, calcium antagonism (thoracic aorta spiral specimen, contraction by calcium) (Cavia porcellus, UniProt O35505).
T2 construct: from tissue; host or cells: thoracic aorta spiral strip of male Hartley guinea pig
T2 sequence (O35505 whole entry): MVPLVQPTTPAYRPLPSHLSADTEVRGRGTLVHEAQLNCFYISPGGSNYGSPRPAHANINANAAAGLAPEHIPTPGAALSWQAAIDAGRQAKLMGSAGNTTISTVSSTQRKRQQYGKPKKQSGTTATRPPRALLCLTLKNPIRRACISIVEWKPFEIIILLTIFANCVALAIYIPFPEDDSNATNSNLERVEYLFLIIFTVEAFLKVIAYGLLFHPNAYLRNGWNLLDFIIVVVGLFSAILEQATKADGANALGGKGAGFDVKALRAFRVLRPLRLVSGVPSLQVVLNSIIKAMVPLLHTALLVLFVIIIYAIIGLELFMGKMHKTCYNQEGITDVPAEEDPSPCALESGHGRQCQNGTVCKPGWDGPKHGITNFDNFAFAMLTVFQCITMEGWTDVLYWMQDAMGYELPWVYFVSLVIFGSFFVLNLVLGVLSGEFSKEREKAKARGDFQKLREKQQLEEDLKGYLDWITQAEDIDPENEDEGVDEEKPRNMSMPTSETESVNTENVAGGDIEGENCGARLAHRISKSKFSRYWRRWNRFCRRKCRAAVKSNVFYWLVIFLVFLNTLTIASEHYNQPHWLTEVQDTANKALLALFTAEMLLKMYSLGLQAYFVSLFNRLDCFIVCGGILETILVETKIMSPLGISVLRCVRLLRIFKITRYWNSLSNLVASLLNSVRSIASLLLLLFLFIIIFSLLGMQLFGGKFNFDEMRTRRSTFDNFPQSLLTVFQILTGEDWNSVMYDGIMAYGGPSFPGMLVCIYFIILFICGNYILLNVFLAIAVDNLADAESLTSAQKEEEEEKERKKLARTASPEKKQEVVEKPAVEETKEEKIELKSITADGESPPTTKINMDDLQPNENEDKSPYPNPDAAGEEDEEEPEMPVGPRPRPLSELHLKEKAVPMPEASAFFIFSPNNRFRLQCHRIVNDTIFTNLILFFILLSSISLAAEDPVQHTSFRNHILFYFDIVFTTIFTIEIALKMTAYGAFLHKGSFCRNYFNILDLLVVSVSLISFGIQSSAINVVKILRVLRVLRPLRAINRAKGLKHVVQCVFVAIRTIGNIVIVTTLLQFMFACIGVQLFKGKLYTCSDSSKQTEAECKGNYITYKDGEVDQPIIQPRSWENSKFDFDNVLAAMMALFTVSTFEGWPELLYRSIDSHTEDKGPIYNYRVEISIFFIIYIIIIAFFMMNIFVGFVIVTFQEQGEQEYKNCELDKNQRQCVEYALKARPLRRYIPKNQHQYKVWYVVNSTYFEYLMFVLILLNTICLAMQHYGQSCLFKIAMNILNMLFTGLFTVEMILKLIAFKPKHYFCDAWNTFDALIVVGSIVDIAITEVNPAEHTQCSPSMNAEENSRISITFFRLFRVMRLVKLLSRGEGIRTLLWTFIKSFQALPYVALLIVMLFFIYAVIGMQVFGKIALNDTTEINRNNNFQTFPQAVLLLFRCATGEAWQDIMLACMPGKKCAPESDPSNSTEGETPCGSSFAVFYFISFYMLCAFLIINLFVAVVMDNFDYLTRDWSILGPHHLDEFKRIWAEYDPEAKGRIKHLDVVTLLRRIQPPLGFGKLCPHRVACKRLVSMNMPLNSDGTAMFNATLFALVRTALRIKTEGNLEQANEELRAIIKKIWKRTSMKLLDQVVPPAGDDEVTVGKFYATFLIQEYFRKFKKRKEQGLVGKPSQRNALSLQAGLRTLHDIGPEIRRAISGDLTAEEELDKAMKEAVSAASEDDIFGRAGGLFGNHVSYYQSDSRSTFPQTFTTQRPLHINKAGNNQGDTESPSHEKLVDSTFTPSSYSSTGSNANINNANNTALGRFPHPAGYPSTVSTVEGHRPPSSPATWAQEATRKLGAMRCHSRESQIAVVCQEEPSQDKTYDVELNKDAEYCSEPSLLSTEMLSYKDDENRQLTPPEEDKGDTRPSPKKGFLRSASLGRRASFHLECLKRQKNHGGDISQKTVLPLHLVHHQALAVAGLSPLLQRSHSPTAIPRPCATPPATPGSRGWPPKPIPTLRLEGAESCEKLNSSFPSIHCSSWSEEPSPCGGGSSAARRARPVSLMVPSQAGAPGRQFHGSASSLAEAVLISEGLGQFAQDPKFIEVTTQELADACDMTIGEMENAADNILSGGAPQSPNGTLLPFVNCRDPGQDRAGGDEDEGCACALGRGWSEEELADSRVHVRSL
Kind of data set: Calcium antagonistic effect (contraction response by calcium of spiral thoracic aorta specimen, Magnus method). The arrangement: species or system Hartly male giunea pig. The following applies: guinea pig thoracic aorta; antagonism of calcium contraction; read-out: Calcium antagonistic effect, pA2 value (converted). The method, then: [Calcium antagonistic effect]
Using a spiral blood vessel specimen taken from a thoracic aorta of Hartly male giunea pig weighed 400 to 600 g, a contraction response by calcium was measured as a dose-response curve according to Magnus method and the antagonistic activity for each test compound was indicated as above-mentioned pA2 value.

Results on 2 molecules are retold here after patent publication US4652566A, “Benzofuran derivatives, processes for preparing the same and antihypertensive agents containing the same” (Kaken Pharmaceutical Co., Ltd., priority 1984, dated 1987).

SMILES strings stand for the structures.

`COc1ccccc1N1CCN(CC(O)COc2cccc3cc(C(N)=O)oc23)CC1` (stereo not shown) [Ex. 9, 2-carbamoyl-7-{2-hydroxy-3-[4-(2-methoxyphenyl)-piperazinyl]propoxy}benzofuran]: the “Increasing rated of coronary blood flow when administered with a 1 mg” value in data set [1] is 105.6 ± 11.8%. In addition, the “Maximum value of change, heart rate” value in data set [2] (10 mg/kg) was -154.2 ± 17.3 beats/min; in data set [2] (100 mg/kg), -69.2 ± 12.1 beats/min. Also, the figures for the “Maximum value of change, systolic pressure” value in data set [2] (10 mg/kg) and in data set [2] (100 mg/kg) were -61.2 ± 4.3 mmHg and -75.6 ± 2.4 mmHg, respectively. The median lethal dose (LD50) (as a rule, the dose at which mortality reaches 50%) at 168 h in data set [3] is more than 1500 mg/kg. The Kb in data set [4] was 27.5 nM; in data set [5], 631 nM.

With `COc1ccccc1N1CCN(CC(O)COc2cccc3cc(C(C)O)oc23)CC1` (stereo not shown) [Ex. 22, 2-(1-hydroxyethyl)-7-{2-hydroxy-3-[4-(2-methoxyphenyl)piperazinyl]propoxy}benzofuran], in data set [1], the “Increasing rated of coronary blood flow when administered with a 1 mg” value is listed as 87.7 ± 9.4%. Also, the “Maximum value of change, heart rate” value in data set [2] (10 mg/kg) is reported as -149.2 ± 15.3 beats/min; in data set [2] (100 mg/kg) it was -160.2 ± 19.8 beats/min. For the same molecule, the “Maximum value of change, systolic pressure” value in data set [2] (10 mg/kg) is listed as -42.8 ± 6.7 mmHg; in data set [2] (100 mg/kg), -69.5 ± 7.9 mmHg. In addition, the LD50 at 168 h in data set [3] is more than 1500 mg/kg. For the same molecule, the results for the Kb in data set [4] and in data set [5] were 50.1 nM and 1050 nM, respectively.
